Measurements taken from patent WO2023231996A1, “Crystal forms of hydroxamic acid ester compound and salt thereof, and preparation method” (Shenzhen Chipscreen Biosciences Co Ltd, priority 2022, dated 2023).

Legend:
[1] = Crystal form by XRPD after DVS; type: physicochemical; settings: humidity 50%-95%-0%-50%
[2] = Hygroscopicity by dynamic moisture adsorption and desorption (DVS); type: physicochemical; settings: humidity 50%-95%-0%-50%
[3] = Solid-state stability by XRPD under stress, accelerated and room-temperature conditions; type: physicochemical; settings: high temperature (60°C), high humidity (25°C/92.5%RH), accelerated (40°C/75%RH), room temperature (25°C/60%RH), open
Tyk2 = Tyk2 (Homo sapiens, UniProt P29597); settings: recorded in PCT/CN2021/134929; cited from earlier work
[4] = Thermodynamic stability by competitive slurry, XRPD (Example 34); type: physicochemical; settings: suspended in saturated acetonitrile or MTBE solution, equal amounts of form E and form AH, 6 days
[5] = light not given in the conclusion

Sequence of Tyk2 (P29597 whole entry, species assumed): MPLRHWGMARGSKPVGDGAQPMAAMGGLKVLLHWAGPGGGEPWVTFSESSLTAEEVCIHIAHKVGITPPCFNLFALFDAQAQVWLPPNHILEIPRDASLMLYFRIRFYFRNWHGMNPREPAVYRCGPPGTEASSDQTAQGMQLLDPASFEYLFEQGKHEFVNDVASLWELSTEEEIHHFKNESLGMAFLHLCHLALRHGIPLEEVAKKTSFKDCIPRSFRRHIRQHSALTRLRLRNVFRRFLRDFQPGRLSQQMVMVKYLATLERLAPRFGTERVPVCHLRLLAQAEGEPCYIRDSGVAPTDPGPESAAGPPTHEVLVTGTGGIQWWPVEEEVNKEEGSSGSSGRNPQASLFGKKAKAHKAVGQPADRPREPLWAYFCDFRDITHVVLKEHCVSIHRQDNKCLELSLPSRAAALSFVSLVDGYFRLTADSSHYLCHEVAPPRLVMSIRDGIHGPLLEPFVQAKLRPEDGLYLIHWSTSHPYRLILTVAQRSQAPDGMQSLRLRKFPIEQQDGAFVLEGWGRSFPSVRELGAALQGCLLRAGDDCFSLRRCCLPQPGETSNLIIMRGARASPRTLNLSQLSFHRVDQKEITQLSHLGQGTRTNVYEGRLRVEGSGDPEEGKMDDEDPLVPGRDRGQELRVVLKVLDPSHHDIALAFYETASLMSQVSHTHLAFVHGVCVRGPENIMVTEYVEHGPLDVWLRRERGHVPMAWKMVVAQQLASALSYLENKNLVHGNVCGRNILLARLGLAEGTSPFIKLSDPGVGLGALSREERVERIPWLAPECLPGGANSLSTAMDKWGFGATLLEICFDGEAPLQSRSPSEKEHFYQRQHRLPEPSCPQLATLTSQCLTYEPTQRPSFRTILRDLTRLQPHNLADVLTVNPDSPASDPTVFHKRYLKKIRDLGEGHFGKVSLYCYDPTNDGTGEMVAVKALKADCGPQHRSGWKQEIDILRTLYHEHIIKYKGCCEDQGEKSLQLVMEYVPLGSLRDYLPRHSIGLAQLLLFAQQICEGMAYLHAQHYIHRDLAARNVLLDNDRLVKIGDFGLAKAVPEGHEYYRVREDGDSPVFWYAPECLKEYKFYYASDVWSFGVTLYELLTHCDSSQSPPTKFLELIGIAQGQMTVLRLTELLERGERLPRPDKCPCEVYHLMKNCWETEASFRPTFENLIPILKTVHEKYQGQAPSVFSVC

Structure (SMILES) | crystalline transformation before and after the DVS test [1] | hygroscopicity [2] | stability [3, 5] | Tyk2 selective inhibitory activity (Tyk2) | thermodynamic stability [4] | stability ([3]; light (25°C/4500Lux))
CCONC(=O)c1cnc(Nc2cc(C)nc(C)n2)cc1Nc1cccc(-c2ncccn2)c1OC.O=C(O)/C=C\C(=O)O [maleate crystal form Type A] | does not undergo crystalline transformation | extremely hygroscopic | remains stable | – | – | –
CCONC(=O)c1cnc(Nc2cc(C)nc(C)n2)cc1Nc1cccc(-c2ncccn2)c1OC [compound represented by formula (I), 6-(((2,6-二甲基嘧啶-4-基)氨基)-N-乙氧基-4-((2-甲氧基-3-(嘧啶-2-基)苯基)氨基)烟酰胺] | – | – | – | excellent Tyk2 selective inhibitory activity | – | –
CCONC(=O)c1cnc(Nc2cc(C)nc(C)n2)cc1Nc1cccc(-c2ncccn2)c1OC [unsolvated crystalline form E] | does not undergo a crystalline transformation | no hygroscopicity | remains stable | – | higher stability than Form AH | –
CCONC(=O)c1cnc(Nc2cc(C)nc(C)n2)cc1Nc1cccc(-c2ncccn2)c1OC [unsolvated crystalline form AH] | did not undergo a crystalline transformation | has hygroscopicity | – | – | – | remains stable
CCONC(=O)c1cnc(Nc2cc(C)nc(C)n2)cc1Nc1cccc(-c2ncccn2)c1OC.O=C(O)CC(O)(CC(=O)O)C(=O)O [citric acid eutectic crystal form Type A] | did not crystallize before and after the DVS test. type transformation | almost no hygroscopicity | remains stable | – | – | –
CCONC(=O)c1cnc(Nc2cc(C)nc(C)n2)cc1Nc1cccc(-c2ncccn2)c1OC.O=C(O)CC(O)C(=O)O [malic acid eutectic crystal form Type A] | did not crystallize before and after the DVS test. type transformation | slightly hygroscopic | remains stable | – | – | –
